Measured values: US7314858B2, “Retrocyclins: antiviral and antimicrobial peptides” (priority 2001, dated 2008)
“Also recorded” adds a separate entry of the source. Where a SMILES comes first, the peptide text is derived from it. Bridges are numbered along the chain shown (N, C = ends).

How the values were obtained:
[1] = molecular target: T1, CD4 (Homo sapiens, UniProt P01730); test: Surface plasmon resonance binding; settings: immobilized CD4
T1 construct: Recombinant human soluble CD4 (full-length 45 kDa glycosylated ectodomain); purchased Protein Sciences Corporation, Meriden, Conn; host or cells: ExpresSF+ S. frugiperda cells
Excerpt: (§1) Surface plasmon resonance. Recombinant human soluble CD4 (full-length 45 kDa glycosylated ectodomain) was produced by ExpresSF+S. frugiperda cells in serum-free medium (Protein Sciences Corporation, Meriden, Conn.). Glycosylated HIV-1 gp120 (LAV) envelope glycoprotein (Catalog No. 2003-LAV) was purchased from the same source. Recombinant HIV-1BaL was obtained through the AIDS Research and Reference Reagent Program, Division of AIDS, National Institute of Allergy and Infectious Disease, NIH.
(§2) Surface plasmon resonance (SPR) experiments were done with a Biacore 2000 system (Biacore, Inc., Piscataway, N.J.). The running buffer (pH 7.4) contained 10 mM HEPES, 150 mM NaCl, 3 mM EDTA and 0.005% polysorbate 20. The immobilized proteins (gp120-LAV and CD4) were dissolved at 20 μg/ml in 10 mM sodium acetate, pH 5.0 and immobilized on a Biacore CM5 sensor chip using the amine coupling method. The chip was activated by mixing 400 mM EDC (N-ethyl-N-(3-dimethylaminopropyl)-carbodiimide hydrochloride) and 100 mM N-hydroxysuccinimide. […] Residual reactive groups on the chip surface were blocked using 1.0 Methanolamine/HCl, pH 8.5.
(§3) The flow cell chip used as a control lacked immobilized protein but was otherwise treated as above. Signals were corrected for nonspecific binding by subtracting the control signal. To regenerate the chip surface, bound ligands were removed with 10 mM HCl. Data were analyzed with BIAevaluation 3.1 software. Curve fitting was done with an assumption of 1:1 binding.
(§4) In those experiments, biosensor chips containing immobilized gp120 or CD4 were perfused with a 1 μg/ml solution of the peptides, and binding was measured by surface plasmon resonance. […] No binding studies were performed with gp120 preparations derived from non-B HIV-1 subtypes.

[2] = tested on: human red blood cells; test: Hemagglutination of washed red blood cells in PBS; settings: washed human red blood cells in PBS
Procedure: Hemagglutination was tested by adding the stated concentration of peptide to a well comprising red blood cells (shown in FIG. 22). When the RBC are agglutinated, they clump together and settle rapidly and form a diffuse circle covering much of the bottom of the well. In the absence of agglutination, they settle more slowly and form a compact red button in the center of the well.
Sequences of retrocyclin-related peptides that were synthesized and either tested for activity against HIV-1 (see FIGS. 21A and 21B) and/or for their ability to cause human red blood cells to hemagglutinate or both. NT signifies not tested. Linear sequences appear in the table, but all peptides were cyclic and contained three intramolecular disulfide bonds. Hemagglutination of washed human red blood cells was tested in PBS, at peptide concentrations of 50, 25, 12.5 6.25 and 3.12 μg/ml. The lowest concentrations that caused hemagglutination are shown. Peptide concentrations were determined by amino acid analysis or by AUC (area under the curve) RP-HPLC analysis with reference to amino-acid analyzed standards.

[3] = molecular target: gp120 (BaL); test: Surface plasmon resonance binding; set-up: species or system HIV-1; settings: immobilized gp120(BaL)
Excerpt: as §1, §2, §3, §4

[4] = tested on: HIV-1 strain JR-CSF; test: HIV proviral DNA formation, quantitative real time PCR in CD4+-selected PBMC; format: cell-based; settings: 20 μg/ml, MOI 0.1
Excerpt: FIG. 13. Retrocyclin and RC-101 inhibited the formation of HIV proviral DNA. Retrocyclin and RC-101 inhibited the formation of DNA from both early events (total HIV DNA) and later events (full-length HIV DNA) of reverse transcription. Data are an average of 2 experiments, except for RC-101 (1 experiment). “HI virus” is a heat-inactivated virus control for background levels of viral DNA.
Retrocyclin inhibits HIV replication at an early step (reverse transcription or before). To determine whether retrocyclin blocked the formation of proviral DNA in HIV-JR-CSF-inoculated CD4^+-selected PBMC, quantitative real time PCR was performed. This method is more sensitive than measuring p24 release and can detect infection even when p24 values may be affected by virus carried over from the original inoculum. CD4^+-selected PBMC (10^6 cells) were incubated in 250 μl at 37° C./5% CO2 for 3 hr with either HIV-1 strain JR-CSF (MOI=0.1), heat-inactivated virus (background control), JR-CSF+20 μg/ml retrocyclin or JR-CSF+20 μg RC-101. Cells were washed and resuspended in 1 ml R10-50 media, and incubated for an additional 9 hours. Following incubation, cells were pelleted at 300×g, removed of overlying supernatant, and stored at −80° C. until analyzed by real time PCR.

[5] = tested on: HIV-1 strain JR-CSF; test: HIV-1 JR-CSF infection of CD4+ PBMC, p24 antigen ELISA; format: cell-based; settings: JR-CSF (R5), peptide 10-20 μg/ml
Procedure: FIG. 5A-C. Anti-HIV-1 activity of retrocyclin. Two strains of HIV-1 and two types of human target cells were used. The IIIB strain is T-cell tropic (X4) and utilizes the CXCR4 co-receptor for entry; the JR-CSF strain is M-tropic (R5) and uses CCR5 for entry. PBMC signifies CD4^+-selected peripheral blood mononuclear cells. […] (A) Two concentrations of retrocyclin (2 μg/ml, 20 μg/ml), 20 μg/ml of the Rhesus circular defensin “RTD-1”, and 20 μg/ml of a horseshoe crab-derived peptide “T140”, reported to only prevent X4 infections, were tested in antiviral assays of against strain IIIB in H9 cells (n=2-6 per peptide; error bars indicate SEM). (B) To confirm our results with primary human cells, similar assays were performed utilizing IIIB virus and CD4^+ PBMC or (C) JR-CSF virus and CD4^+ PBMC. Peptides were not cytotoxic at indicated concentrations, measured by trypan blue exclusion. Average of duplicate experiments are reported for studies with PBMCs. Assay sensitivity=10 pg/ml.
Either HIV-1-permissive H9 cells were used as targets, or primary CD4^+ lymphocytes from HIV-1-seronegative donors generated from freshly purified peripheral blood mononuclear cells (PBMC) stimulated with a CD3-CD8 bispecific monoclonal antibody. After approximately 7 days, when 98% of these cells co-expressed CD3 and CD4, they were infected with HIV-1 with or without retrocyclin or other test peptide. These cells were maintained in RPMI containing 10% FCS supplemented with 2 mM glutamine, 100 U of penicillin/ml, 10 μg of streptomycin/ml, and 50 U of interleukin 2/ml (R10-50 media).
The p24 assay results shown in FIG. 9 are on a logarithmic scale. A horizontal reference line that passes through 100 on the ordinate scale corresponds to […] of p24 antigen. Results from 3 experiments (each performed with PBMC from a different donor) are shown.

Compound | koff [1] [s⁻¹] | kon [1] [M⁻¹ s⁻¹] | Hemagglutination seen at a concentration of (lowest concentration that caused hemagglutination) [2] [µg/mL] | Kd [3] [nM] | koff [3] | kon [3] | formation of HIV-1 proviral DNA [4] | inhibition of HIV-1 replication (p24) [5] | hemagglutination compared with retrocyclin [2]
CC[C@H](C)[C@@H]1NC(=O)CNC(=O)[C@H](CCCNC(=N)N)NC(=O)CNC(=O)[C@@H]2CSSC[C@H](NC1=O)C(=O)N[C@@H](CCCNC(=N)N)C(=O)N[C@H]1CSSC[C@H](NC(=O)[C@H](CCCNC(=N)N)NC(=O)[C@@H]3CSSC[C@H](NC(=O)[C@H]([C@@H](C)CC)NC1=O)C(=O)NCC(=O)N[C@@H](CCCNC(=N)N)C(=O)NCC(=O)N[C@@H]([C@@H](C)CC)C(=O)N3)C(=O)N[C@@H]([C@@H](C)CC)C(=O)N2 [RC-100, Retrocyclin] (cyclo(GICRCICGRGICRCICGR); disulfide 3-16, 5-14, 7-12) | 0.0022 | 67700 | 6 to 12.5 | 29.2 | 4.12 × 10^−3 | 14.1 × 10^4 | inhibited the formation of HIV-1 proviral DNA | complete suppression; also recorded: uniformly protective | –
CC[C@H](C)[C@@H]1NC(=O)CNC(=O)[C@H](CCCCN)NC(=O)CNC(=O)[C@@H]2CSSC[C@H](NC1=O)C(=O)N[C@@H](CCCNC(=N)N)C(=O)N[C@H]1CSSC[C@H](NC(=O)[C@H](CCCNC(=N)N)NC(=O)[C@@H]3CSSC[C@H](NC(=O)[C@H]([C@@H](C)CC)NC1=O)C(=O)NCC(=O)N[C@@H](CCCNC(=N)N)C(=O)NCC(=O)N[C@@H]([C@@H](C)CC)C(=O)N3)C(=O)N[C@@H]([C@@H](C)CC)C(=O)N2 [RC-101, R9K-Retrocyclin] | 0.00226 | 79000 | > 200 | 20.5 | 5.55 × 10^−3 | 27.0 × 10^4 | inhibited the formation of HIV-1 proviral DNA | as active as retrocyclin | much less hemagglutination than retrocyclin; also recorded: less hemagglutination than retrocyclin-1 or retrocyclin-2
